Measured values as given in EP1000062B1, “TRICYCLIC VASOPRESSIN AGONISTS” (Wyeth, priority 1997, dated 1999).

System: Vasopressin V2
Assay: Vasopressin V2 agonist effects of test compounds in normal conscious water-loaded rats
Type: in vivo
Conditions: Sprague-Dawley (CD) rats, oral 10 mg/kg, urine collected for four hours; for Osmolality (% Increase): change in osmolality as percent of control; for Urine Volume (% decrease): vs. control
Protocol: Vasopressin V2 Agonist Effects of Test Compounds in Normal Conscious Water-Loaded Rats:
On the day of test, rats were placed individually into metabolic cages equipped with devices to separate the feces from the urine and containers for collection of urine. Test compound or reference agent was given at an oral dose of 10 mg/kg in a volume of 10 ml /kg. […] Thirty minutes after dosing the test compound, rats were gavaged with water at 30 ml /kg into the stomach using a feeding needle. During the test, rats were not provided with water or food. Urine was collected for four hours after dosing of the test compound. At the end of four hours, urine volume was measured. […] Determinations of Na^+, K^+ and Cl^- ion were carried out using ion specific electrodes in a Beckman SYNCHRON EL-ISE Electrolyte System analyzer. […] In the screening test, two rats were used for each compound. If the difference in the urine volume of the two rats was greater than 50%, a third rat was used.

| Compound | Osmolality (% Increase) | Urine Volume (% decrease) |
| --- | --- | --- |
| COc1cc(-n2ccc(C)n2)ccc1C(=O)N1Cc2cccn2Cc2ccccc21 [Example 107, [2-Methoxy-4-(3-methyl-pyrazol-1-yl)-phenyl](5H,11H-pyrrolo[2,1-c][1,4]-benzodiazepin-10-yl) methanone] | 125% | 31% |
| O=C(c1ccc(-n2ccc(C3CC3)n2)cc1C(F)(F)F)N1Cc2cccn2Cc2ccccc21 [Example 5, [4-(3-Cyclopropyl-pyrazol-1-yl)-2-trifluoromethy-phenyl]-(5H,11H-pyrrolo[2,1-c][1,4]benzodiazepin-10-yl)-methanone] | 231% | 56% |
| CCCC(=O)n1ccc(-c2ccc(C(=O)N3Cc4cccn4Cc4ccccc43)cc2)n1 [Example 33, 1-{3-[4-(5H,11H-Pyrrolo[2,1-c][1,4]benzodiazepine-10-carbonyl)-phenyl]-pyrazol-1-yl}-butan-1-one] | 362% | 68% |
| O=C(O)c1ccc(C(=O)N2Cc3cccn3Cc3ccccc32)c(Cl)c1 [Example 78, 3-Chloro-4-(5H,11H-Pyrrolo[2,1-c][1,4]benzodiazepine-10-carbonyl)-benzoic acid] | 115% | 21% |
| Cn1cc(-c2ccc(C(=O)N3Cc4cccn4Cc4ccccc43)cc2)cn1 [Example 55, [4-(1-Methyl-1H-pyrazol-4-yl)-phenyl]-(5H,11H-pyrrolo[2,1-c][1,4]-benzodiazepin-10-yl)-methanone] | 164% | 80% |
| Cc1n[nH]c(-c2ccc(C(=O)N3Cc4cccn4Cc4ccccc43)c(Cl)c2)n1 [Example 81, [2-Choro-4-(5-methyl-2H-[1,2,4]triazol-3-yl)phenyl]-(5H,11H-pyrrolo[2,1-c][1,4]benzodiazepine-10-carbonyl)-methanone] | 490% | 82% |
| CC(=O)c1ccc(C(=O)N2Cc3cccn3Cc3ccccc32)c(Cl)c1 [Example 121, 1-[4-(5H,11H-pyrrolo[2,1-c][1,4]benzodiazepine-10-carbonyl)-3-chlorophenyl]-ethanone] | 155% | 22% |
| Cc1cn(-c2ccc(C(=O)N3Cc4cccn4Cc4ccccc43)c(Cl)c2)cn1 [Example 12, [2-Chloro-4-(4-methyl-imidazol-1-yl)-phenyl]-(5H,11H-pyrrolo[2,1-c][1,4]benzodiazepin-10-yl)-methanone] | 330% | 69% |
| O=C(c1ccc(-n2cccn2)cc1Cl)N1Cc2cccn2Cc2ccccc21 [Example 16, (2-Chloro-4-pyrazol-1-yl-phenyl)(5H,11H-Pyrrolo[2,1-c][1,4]benzodiazepin-10-yl)-methanone] | 400% | 88% |
| O=C(c1ccc(-n2cccn2)nc1Cl)N1Cc2cccn2Cc2ccccc21 [Example 99, (2-Chloro-6-pyrazol-1-yl-pyridin-3-yl)-(5H,11H-pyrrolo[2,1-c][1,4]benzodiazepin-10-yl)-methanone] | 205% | 43% |
| Cn1ccc(-c2ccc(C(=O)N3Cc4ccnn4Cc4ccccc43)cc2)n1 [Example 120A, [4-(1-Methyl-1H-pyrazol-3-yl)phenyl](4H,10H-pyrazolo[5,1c][1,4]-benzodiazepin-5-yl) methanone] | 269% | 66% |
| Cc1n[nH]c(-c2ccc(C(=O)N3Cc4cccn4Cc4ccccc43)cc2)n1 [Example 50, [4-(5-Methyl-2H-[1,2,4]triazol-3-yl)-phenyl]-(5H,11H-pyrrolo[2,1-c][1,4]-benzodiazepin-10-yl)-methanone] | 223% | 53% |
| Cc1cnn(-c2ncc(C(=O)N3Cc4cccn4Cc4ccccc43)c(C(F)(F)F)n2)c1 [Example 21, [2-(4-Methyl-pyrazol-1-yl)-4-trifluoromethyl-pyrimidin-5-yl]-(5H,11H-pyrrolo[2,1-c][1,4]benzodiazepin-10-yl)-methanone] | 181% | 49% |
| O=C(c1ccc(-c2ccn(C(=O)c3ccccc3-c3ccccc3)n2)cc1)N1Cc2cccn2Cc2ccccc21 [Example 40, {4-[1-(Biphenyl-2-carbonyl)-1H-pyrazol-3-yl]-phenyl}-(5H,11H-pyrrolo[2,1-c][1,4]benzodiazepin-10-yl)-methanone] | 183% | 46% |
| CC(=O)c1ccc(C(=O)N2Cc3cccn3Cc3ccccc32)cc1 [Example 22, 1-[4-(5H,11H-Pyrrolo[2,1-c][1,4]benzodiazepine-10-carbonyl)-phenyl]-ethanone] | 322% | 80% |
| CCCCn1ccc(-c2ccc(C(=O)N3Cc4cccn4Cc4ccccc43)cc2)n1 [Example 28, [4-(1-Butyl-1H-pyrazol-3-yl)-phenyl]-(5H,11H-pyrrolo[2,1-c][1,4]-benzodiazepin-10-yl)-methanone] | 37% | 75% |
| O=C(c1ccc(-n2cccn2)cc1C(F)(F)F)N1Cc2cccn2Cc2ccccc21 [Example 4, (4-Pyrazol-1-yl-2-trifluoromethyl-phenyl)-(5H,11H-pyrrolo[2,1-c][1,4]benzodiazepin-10-yl)-methanone] | 225% | 57% |
| Cc1cnn(-c2ccc(C(=O)N3Cc4cccn4Cc4ccccc43)c(Cl)c2)c1 [Example 11] | 285% | 70% |
| O=C(c1ccc(-c2nnn[nH]2)cc1Cl)N1Cc2cccn2Cc2ccccc21 [Example 86, [2-Chloro-4-(1H-tetrazol-5-yl)-phenyl]-(5H,11H-pyrrolo[2,1-c][1,4]benzodiazepin-10-yl)-methanone] | 86% | 5% |
| Cc1ccc(F)cc1C(=O)n1ccc(-c2ccc(C(=O)N3Cc4cccn4Cc4ccccc43)cc2)n1 [Example 35, {4-[1-(5-Fluoro-2-methyl-benzoyl)-1H-pyrazol-3-yl]-phenyl}-(5H,11H-pyrrolo[2,1-c][1,4]benzodiazepin-10-yl)-methanone] | 308% | 63% |
| Cc1ccn(-c2ccc(C(=O)N3Cc4ccnn4Cc4ccccc43)c(Cl)c2)n1 [Example 116, [2-Chloro-4-(3-methyl-pyrazol-1-yl)-phenyl]-(4H,10H-pyrazolo[5,1-c][1,4]-benzodiazepin-5-yl)-methanone] | 256% | 66% |
| Cc1cn(-c2ccc(C(=O)N3Cc4cccn4Cc4ccccc43)c(C(F)(F)F)c2)cn1 [Example 6, [4-(4-Methyl-imidazol-1-yl)-2-trifluoromethyl-phenyl]-(5H,11H-pyrrolo[2,1-c][1,4]benzodiazepin-10-yl)-methanone] | 270% | 58% |
| Cc1ccn(-c2ccc(C(=O)N3Cc4ccc(Br)n4Cc4ccccc43)c(Cl)c2)n1 [Example 88, (3-Bromo-5H,11H-pyrrolo[2,1-c][1,4]benzodiazepin-10-yl)-[2-chloro-4-(3-methyl-pyrazol-1-yl)-phenyl]-methanone] | 226% | 68% |
| Cc1ccn(-c2ccc(C(=O)O)c(Cl)c2)n1 [Example 97, 2-Chloro-4-(3-methyl-1H-pyrazol-1-yl)-benzoic acid] | 106% | 3% |
| O=C(c1ccc(-c2ccn(C(=O)C3CC3)n2)cc1)N1Cc2cccn2Cc2ccccc21 [Example 32, [4-(1-Cyclopropanecarbonyl-1H-pyrazol-3-yl)-phenyl]-(5H,11H-pyrrolo[2,1-c][1,4]benzodiazepin-10-yl)-methanone] | 373% | 77% |
| Cc1ccn(-c2ccc(C(=O)N3Cc4ccc(CN(C)C)n4Cc4ccccc43)c(Cl)c2)n1 [Example 87, [2-Chloro-4-(3-methyl-pyrazol-1-yl)-phenyl]-(3-dimethylaminomethyl-5H,11H-pyrrolo[2,1-c][1,4]benzodiazepin-10-yl)-methanone] | 214% | 71% |
| Cc1nc(-c2ccc(C(=O)N3Cc4cccn4Cc4ccccc43)cc2)n(C)n1 [Example 51, [4-(2,5-Dimethyl-2H-[1,2,4]triazol-3-yl)-phenyl]-(5H,11H-pyrrolo[2,1-c]-[1,4]benzodiazepin-10-yl)-methanone] |  | 72% |
| CCC(=O)n1ccc(-c2ccc(C(=O)N3Cc4cccn4Cc4ccccc43)cc2)n1 [Example 31, 1-{3-[4-(5H,11H-Pyrrolo[2,1-c][1,4]benzodiazepine-10-carbonyl)-phenyl]-pyrazol-1-yl}-propan-1-one] | 298% | 72% |
| O=C(c1ccc(-c2ccn(C(=O)c3ccccc3-c3ccc(C(F)(F)F)cc3)n2)cc1)N1Cc2cccn2Cc2ccccc21 [Example 41, {4-[1-(4'-Trifluoromethyl-biphenyl-2-carbonyl)-1H-pyrazol-3-yl]-phenyl}-(5H,11H-pyrrolo[2,1-c][1,4]benzodiazepin-10-yl)-methanone] | 240% | 69% |
| Cc1ccn(-c2ccc(C(=O)N3Cc4cccn4Cc4ccccc43)c(Cl)c2)n1 [Example 9A] | 325% | 70% |
